Measurements taken from US9676727B2, “Myxovirus therapeutics, compounds, and uses related thereto” (priority 2011, dated 2017).
Converted amounts (≈) assume the structure as drawn. Values belong to the compound of their own block, whether it stands above or below them.

Tests used:
MV-Alaska [1] = experiment: Virus yield (virus titer) reduction assay; assay type: cell-based, Measles virus (MeV); details: Measles morbillivirus
[2] = Aqueous solubility by nephelometry; assay type: physicochemical; details: buffer pH=7.4; for Aqueous solubility (μg/ml) Test: Nephelometer
Vero cells = experiment: MTT cytotoxicity; assay type: cell-based; details: averages of at least three experiments; highest concentration assessed 75 μM
[3] = Pharmacokinetic study in rat, plasma concentration after dosing; assay type: in vivo, Sprague-Dawley rat; details: for AUC (0-t) / AUC (0-∞) / Cmax / Tmax / T½: suspension in PEG200/0.5% methylcellulose (10/90)
Experimental: Preliminary pharmacokinetic (PK) studies in the Sprague-Dawley rat compared AS-136a with compounds 2k and 2o following p.o. dosing by oral gavage at 10 mg/kg and 50 mg/kg in a PEG200/0.5% methylcellulose (10/90) vehicle (n=4/group).
The data from the preliminary pharmacokinetic studies using the 6-hour time point are reported for comparison purposes. […] On the basis of its excellent in vitro potency, good solubility and pharmacokinetic profile, compound 2o was chosen for further bioavailability evaluation.

MV-Alaska [4] = experiment: Viral CPE-reduction assay (MeV-Alaska in Vero-SLAM cells, crystal violet); assay type: cell-based, Measles virus (MeV)
Experimental: Methods for evaluating viral activity are provided for in Yoon et al., J Biomol Screen., 2008, 13(7): 591-608 and Krumm et al., PLoS ONE, 2011, 6(5), e20069, both hereby incorporated by reference in their entirety. In certain instances, Vero-SLAM cells were infected with MeV-Alaska in four replicates per compound concentration in a 96-well plate format at an MOI of 0.4 pfu/cell in the presence of the inhibitor. At 96 hours post-infection, cell monolayers were subjected to crystal violet staining (0.1% crystal violet in 20% ethanol), and the absorbance of dried plates at 560 nm determined. Virus-induced cytopathicity was then calculated according to the formula [% rel. CPE=100-(experimental-minimum)/(maximum-minimum)*100], with minimum referring to infected, vehicle-treated wells and maximum to mock-infected wells.

[5] = averages of two to four experiments ± SEM, highest concentration assessed 1 μM, read-out: EC50 (μM) (MV-Alaska) virus titer reduction
[6] = Measles morbillivirus, Table 1, piperidine series, read-out: EC50 (μM) (MV-Alaska) (CPE inhib.)
[7] = Measles morbillivirus, Table 3, averages of four experiments, concentration range 2.3-75 μM, read-out: EC50 (μM) (MV-Alaska) CPE inhibition
[8] = Measles morbillivirus, read-out: EC50 (μM) (MV-Alaska) (CPE inhib.)
[9] = Table 1, piperidine series, read-out: EC50 (μM) (MV-Alaska) (CPE inhib.)
[10] = Measles morbillivirus, Table 2, phenyl and acyclic series, read-out: EC50 (μM) (MV-Alaska) (CPE inhibition)

SMILES: Cn1nc(C(F)(F)F)cc1C(=O)Nc1ccc(S(=O)(=O)N2CCCCC2)cc1 [AS-136a, 1-methyl-N-(4-(piperidin-1-ylsulfonyl)phenyl)-3-(trifluoromethyl)-pyrazole-5-carboxamide, reference compound]
EC50 (MV-Alaska [1]; [5]): 0.014 µM
aqueous solubility ([2]; nephelometry): 15.0 µg/mL (≈ 36 µM)
CC50 (Vero cells): > 75 µM
AUC (0-t) ([3]; oral 10 mg/kg): 132 ng·h/mL
AUC (0-∞) ([3]; oral 10 mg/kg): 513 ng·h/mL
Cmax ([3]; oral 10 mg/kg): 26.9 ng/mL
Tmax ([3]; oral 10 mg/kg): 2.5 h
T½ ([3]; oral 10 mg/kg): 12.7 h
AUC (0-t) ([3]; oral 50 mg/kg): 308 ng·h/mL
AUC (0-∞) ([3]; oral 50 mg/kg): 483 ng·h/mL
Cmax ([3]; oral 50 mg/kg): 72.2 ng/mL
Tmax ([3]; oral 50 mg/kg): 2.7 h
T½ ([3]; oral 50 mg/kg): 3.7 h

SMILES: COCOCC1CCCCN1S(=O)(=O)c1ccc(NC(=O)c2cc(C(F)(F)F)nn2C)cc1 (stereo not drawn) [Compound 1a, N-(4-((2-((methoxymethoxy)methyl)piperidin-1-yl)sulfonyl)phenyl)-1-methyl-3-(trifluoromethyl)-pyrazole-5-carboxamide]
fold more potent than the corresponding 3-piperidine (MV-Alaska [4]; MOM ether analogs, CPE assay): 2 fold
EC50 (MV-Alaska [4]; [6]): 1.5 µM

SMILES: COCOCC1CCCN(S(=O)(=O)c2ccc(NC(=O)c3cc(C(F)(F)F)nn3C)cc2)C1 (stereo not drawn) [Compound 1b, N-(4-((3-((methoxymethoxy)methyl)piperidin-1-yl)sulfonyl)phenyl)-1-methyl-3-(trifluoromethyl)-pyrazole-5-carboxamide]
EC50 (MV-Alaska [4]; [6]): 3.8 µM

SMILES: COCOCC1CCN(S(=O)(=O)c2ccc(NC(=O)c3cc(C(F)(F)F)nn3C)cc2)CC1 [Compound 1c, N-(4-((4-((methoxymethoxy)methyl)piperidin-1-yl)sulfonyl)phenyl)-1-methyl-3-(trifluoromethyl)-pyrazole-5-carboxamide]
fold reduction of activity, 4-substituted derivative (MV-Alaska [4]; MOM ether analogs, CPE assay, versus 2-piperidine 1a): ~10 fold
EC50 (MV-Alaska [4]; [6]): 16 µM

SMILES: Cn1nc(C(F)(F)F)cc1C(=O)Nc1ccc(S(=O)(=O)N2CCCCC2CO)cc1 (stereo not drawn) [Compound 2a]
EC50 (MV-Alaska [4]; [6]): 2.8 µM
EC50 (MV-Alaska [4]; [7]): 2.3 µM
EC50 (MV-Alaska [1]; [5]): 0.85 ± 0.05 µM
Aqueous solubility (μg/ml) Test [2]: 61 µg/mL
CC50 (Vero cells): > 75 µM

SMILES: Cn1nc(C(F)(F)F)cc1C(=O)Nc1ccc(S(=O)(=O)N2CCCCC2CN2CCOCC2)cc1 (stereo not drawn) [Compound 2b, 1-methyl-N-(4-((2-(morpholinomethyl)piperidin-1-yl)sulfonyl)phenyl)-3-(trifluoromethyl)-pyrazole-5-carboxamide]
EC50 (MV-Alaska [4]; [6]): 9.3 µM

SMILES: Cn1nc(C(F)(F)F)cc1C(=O)Nc1ccc(S(=O)(=O)N2CCCCC2CN=[N+]=[N-])cc1 (stereo not drawn) [Compound 2c]
EC50 (MV-Alaska [4]; [6]): 1.5 µM

SMILES: Cn1nc(C(F)(F)F)cc1C(=O)Nc1ccc(S(=O)(=O)N2CCCCC2CN)cc1 (stereo not drawn) [Compound 2d, N-(4-((2-(aminomethyl)piperidin-1-yl)sulfonyl)phenyl)-1-methyl-3-(trifluoromethyl)-pyrazole-5-carboxamide]
EC50 (MV-Alaska [4]; [8]): 55 µM

SMILES: CC(=O)NCC1CCCCN1S(=O)(=O)c1ccc(NC(=O)c2cc(C(F)(F)F)nn2C)cc1 (stereo not drawn) [Compound 2e, N-(4-((2-(acetamidomethyl)piperidin-1-yl)sulfonyl)phenyl)-1-methyl-3-(trifluoromethyl)-pyrazole-5-carboxamide]
EC50 (MV-Alaska [4]; [6]): 14 µM

SMILES: CCOC(=O)/C=C/C1CCCCN1S(=O)(=O)c1ccc(NC(=O)c2cc(C(F)(F)F)nn2C)cc1 (stereo not drawn) [Compound 2g, ethyl 3-(1-((4-(1-methyl-3-(trifluoromethyl)-pyrazole-5-carboxamido)phenyl)sulfonyl)piperidin-2-yl)acrylate]
fold more active than the corresponding alcohols (2h and 2j) (MV-Alaska [4]; CPE assay): 2 fold
EC50 (MV-Alaska [4]; [8]): 3.7 µM

SMILES: Cn1nc(C(F)(F)F)cc1C(=O)Nc1ccc(S(=O)(=O)N2CCCCC2/C=C/CO)cc1 (stereo not drawn) [Compound 2h, N-(4-((2-(3-hydroxypropyl-1-ene)piperidin-1-yl)sulfonyl)phenyl)-1-methyl-3-(trifluoromethyl)-pyrazole-5-carboxamide]
EC50 (MV-Alaska [4]; [6]): 6.8 µM

SMILES: CCOC(=O)CCC1CCCCN1S(=O)(=O)c1ccc(NC(=O)c2cc(C(F)(F)F)nn2C)cc1 (stereo not drawn) [Compound 2i, ethyl 3-(1-((4-(1-methyl-3-(trifluoromethyl)-pyrazole-5-carboxamido)phenyl)sulfonyl)piperidin-2-yl)propanoate]
fold more active than the corresponding alcohols (2h and 2j) (MV-Alaska [4]; CPE assay): 2 fold
EC50 (MV-Alaska [4]; [6]): 2.7 µM

SMILES: Cn1nc(C(F)(F)F)cc1C(=O)Nc1ccc(S(=O)(=O)N2CCCCC2CCCO)cc1 (stereo not drawn) [Compound 2j, N-(4-((2-(3-hydroxypropyl)piperidin-1-yl)sulfonyl)phenyl)-1-methyl-3-(trifluoromethyl)-pyrazole-5-carboxamide]
EC50 (MV-Alaska [4]; [6]): 6.7 µM

SMILES: Cn1nc(C(F)(F)F)cc1C(=O)Nc1ccc(S(=O)(=O)N2CCCCC2CCO)cc1 (stereo not drawn) [Compound 2k, N-(4-((2-(2-hydroxyethyl)piperidin-1-yl)sulfonyl)phenyl)-1-methyl-3-(trifluoromethyl)-pyrazole-5-carboxamide]
EC50 (MV-Alaska [4]; [7]): 2.7 µM
EC50 (MV-Alaska [4]; Measles morbillivirus, MV-Alaska, read-out: EC50, CPE assay): 2.7 µM
EC50 (MV-Alaska [1]; MV-Alaska, read-out: EC50 in the virus titer reduction assay): 0.06 µM
EC50 (MV-Alaska [1]; [5]): 0.06 µM
Aqueous solubility (μg/ml) Test [2]: 62 µg/mL
CC50 (Vero cells): > 75 µM
AUC (0-t) ([3]; oral 10 mg/kg): 56.3 ng·h/mL
AUC (0-∞) ([3]; oral 10 mg/kg): 56.8 ng·h/mL
Cmax ([3]; oral 10 mg/kg): 19.8 ng/mL
Tmax ([3]; oral 10 mg/kg): 1 h
T½ ([3]; oral 10 mg/kg): 0.8 h
AUC (0-t) ([3]; oral 50 mg/kg): 754 ng·h/mL
AUC (0-∞) ([3]; oral 50 mg/kg): 973 ng·h/mL
Cmax ([3]; oral 50 mg/kg): 184 ng/mL
Tmax ([3]; oral 50 mg/kg): 0.5 h
T½ ([3]; oral 50 mg/kg): 2.7 h
dose proportionality ([3]; p.o., range of 10 mg/kg to 50 mg/kg): non-proportionality

SMILES: Cn1nc(C(F)(F)F)cc1C(=O)Nc1ccc(S(=O)(=O)N2CCCCC2CCO)cc1 (stereo not drawn) [Compound 2l, N-(4-((2-(2-hydroxyethyl)piperidin-1-yl)sulfonyl)phenyl)-1-methyl-3-(trifluoromethyl)-pyrazole-5-carboxamide]
fold loss of activity compared to 2m (MV-Alaska [4]; CPE assay, R versus S chirality): 3 fold
EC50 (MV-Alaska [4]; [9]): 8.3 µM

SMILES: Cn1nc(C(F)(F)F)cc1C(=O)Nc1ccc(S(=O)(=O)N2CCCCC2CCO)cc1 (stereo not drawn) [Compound 2m, N-(4-((2-(2-hydroxyethyl)piperidin-1-yl)sulfonyl)phenyl)-1-methyl-3-(trifluoromethyl)-pyrazole-5-carboxamide]
EC50 (MV-Alaska [4]; [9]): 3.1 µM

Further lines, with some results ahead:

EC50 (MV-Alaska [4]; [6]): 4.6 µM
Aqueous solubility (μg/ml) Test [2]: 55 µg/mL
SMILES: Cn1nc(C(F)(F)F)cc1C(=O)Nc1ccc(S(=O)(=O)N2CCCCC2CCN2CCOCC2)cc1 (stereo not drawn) [Compound 2n, 1-methyl-N-(4-((2-(2-morpholinoethyl)piperidin-1-yl)sulfonyl)phenyl)-3-(trifluoromethyl)-pyrazole-5-carboxamide]
CC50 (Vero cells): > 75 µM

EC50 (MV-Alaska [4]; [6]): 25 µM
SMILES: CCOC(=O)COCC1CCCCN1S(=O)(=O)c1ccc(NC(=O)c2cc(C(F)(F)F)nn2C)cc1 (stereo not drawn) [Compound 2p, ethyl 2-((1-((4-(1-methyl-3-(trifluoromethyl)-pyrazole-5-carboxamido)phenyl)sulfonyl)piperidin-2-yl)methoxy)acetate]

EC50 (MV-Alaska [4]; [6]): 8.3 µM
SMILES: Cn1nc(C(F)(F)F)cc1C(=O)Nc1ccc(S(=O)(=O)N2CCCCC2COCCO)cc1 (stereo not drawn) [Compound 2q, N-(4-((2-((2-hydroxyethoxy)methyl)piperidin-1-yl)sulfonyl)phenyl)-1-methyl-3-(trifluoromethyl)-pyrazole-5-carboxamide]

EC50 (MV-Alaska [4]; [10]): 2.8 µM
Aqueous solubility (μg/ml) Test [2]: 22 µg/mL
SMILES: Cn1nc(C(F)(F)F)cc1C(=O)Nc1ccc(S(=O)(=O)c2ccccc2)cc1 [Compound 3a, 1-methyl-N-(4-(phenylsulfonyl)phenyl)-3-(trifluoromethyl)-pyrazole-5-carboxamide]
EC50 (MV-Alaska [1]; [5]): 0.02 µM
CC50 (Vero cells): > 75 µM

EC50 (MV-Alaska [4]; [10]): 3.1 µM
SMILES: COc1ccccc1S(=O)(=O)c1ccc(NC(=O)c2cc(C(F)(F)F)nn2C)cc1 [Compound 3b, N-(4-((2-methoxyphenyl)sulfonyl)phenyl)-1-methyl-3-(trifluoromethyl)-pyrazole-5-carboxamide]
CC50 (Vero cells): > 75 µM

EC50 (MV-Alaska [4]; [10]): 4.5 µM
SMILES: CC(=O)Oc1ccccc1S(=O)(=O)c1ccc(NC(=O)c2cc(C(F)(F)F)nn2C)cc1 [Compound 3d, 2-((4-(1-methyl-3-(trifluoromethyl)-pyrazole-5-carboxamido)phenyl)sulfonyl)phenyl acetate]

EC50 (MV-Alaska [4]; [10]): 3.1 µM
EC50 (MV-Alaska [4]; [7]): 3.1 µM
Aqueous solubility (μg/ml) Test [2]: 46 µg/mL
SMILES: Cn1nc(C(F)(F)F)cc1C(=O)Nc1ccc(S(=O)(=O)c2ccccc2CO)cc1 [Compound 3f, N-(4-((2-(hydroxymethyl)phenyl)sulfonyl)phenyl)-1-methyl-3-(trifluoromethyl)-pyrazole-5-carboxamide]
CC50 (Vero cells): > 75 µM
